Residues, ends and D or L forms follow the SMILES beside them.
How the values were obtained:
[1] = biological target: T1, Reg1_301-599 (amino acids 301-599 of human Regnase-1) phosphorylation by IKKβ (Homo sapiens, UniProt Q5D1E8); test: Regnase-1 phosphorylation inhibition by compounds (AlphaScreen), IKKβ, C-terminal Regnase-1; format: biochemical; details: Table 14, read-out: Phosphorylation inhibition Reg1_301-599, 50% inhibition concentration (IKKβ)
T1 construct: made in house; host or cells: Expi293 cells
T1 sequence (Q5D1E8 301-599): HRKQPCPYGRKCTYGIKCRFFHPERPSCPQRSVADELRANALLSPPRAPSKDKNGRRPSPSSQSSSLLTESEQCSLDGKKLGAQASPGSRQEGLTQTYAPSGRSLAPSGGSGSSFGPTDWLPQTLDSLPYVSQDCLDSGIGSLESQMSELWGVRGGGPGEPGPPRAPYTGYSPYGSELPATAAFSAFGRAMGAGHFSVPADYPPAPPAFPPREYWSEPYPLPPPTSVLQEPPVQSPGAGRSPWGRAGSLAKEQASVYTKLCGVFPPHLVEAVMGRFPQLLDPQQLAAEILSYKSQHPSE
Text: The full-length sequence of human Regnase-1 (UniProt ID: Q5D1E8) was used to prepare a construct having a FLAG tag on the N-terminal side and a recognition sequence for biotin ligase BirA on the C-terminal side (FL_Reg1) as a target protein. The above-mentioned Regnase-1 was expressed in mammalian Expi293 cells, purified with FLAG M2 agarose, and isolated by gel filtration chromatography. When biotinylation was required, methods from nonpatent documents (BMC biotechnology, 2008,8,41; and Protein Science, 1999,8,921-929) were used.
(§1) Among the full-length human Regnase-1 sequence, the 1st to 546th amino acid sequence was prepared and made into a construct having a FLAG tag on the N-terminal side and a biotin ligase BirA recognition sequence on the C-terminal side (herein, a Regnase-1 lacking the C-terminal domain of Regnase-1 (amino acids 547 to 599 in the case of SEQ ID NO: 2) is referred to as “ΔCTD_Reg1”. “ΔCTD_Reg1” is different from “Regnase-1ΔCTD”, which is a C-terminal domain deletion variant resulting from a frameshift mutation caused by a 1 bp deletion at codon 517, as prepared in Example 13). In addition, the sequence from amino acids 301 to 599 of the full-length human Regnase-1 sequence was designated as C-terminal Regnase-1, and a construct having a FLAG tag on the N-terminal side and a recognition sequence for biotin ligase BirA on the C-terminal side was prepared (Reg1_301-599). The above-mentioned Regnase-1 was expressed in mammalian Expi293 cells, purified with FLAG M2 agarose, and isolated by gel filtration chromatography. When biotinylation was required, methods of nonpatent documents (BMC biotechnology, 2008,8,41; and Protein Science, 1999,8,921-929) were used.
(§2) Using Kinase assay buffer III (manufactured by SignalChem) supplemented with 2 mM DTT, 100 μM sodium vanadate, and 2 mM manganese chloride, kinase (IKKβ (manufactured by SignalChem) or TBK1 (manufactured by SignalChem)) and Regnase-1 were reacted in the presence of 10 μM ATP at room temperature for 2 hours to perform a phosphorylation reaction.
(§3) Phosphorylated Regnase-1 was detected by the AlphaScreen system. After each of the above-mentioned phosphorylated Regnase-1 antibodies was added and reacted at room temperature for one hour, anti-FLAG AlphaLISA Acceptor Beads (manufactured by PerkinElmer) and Protein A AlphaScreen Donor Beads (manufactured by PerkinElmer) were added, and EnVision (manufactured by PerkinElmer) was used to measure the excited luminescence. As a result, phosphorylated Regnase-1 produced by the phosphorylation reaction by kinase was specifically detected, and signals were confirmed to be enhanced in a manner dependent on Regnase-1 and kinase concentrations (FIG. 24).
(§4) After mixing 2 nM of the above-mentioned Regnase-1 and the compound, phosphorylated Regnase-1 produced by the phosphorylation reaction was detected by the AlphaScreen system. As the results, the inhibition rate was calculated from the signals obtained when adding the compound at each concentration, by defining the signal obtained with Regnase-1 alone to be 100% inhibition rate, and the signal obtained when the same amount of solvent (DMSO) is added in place of the compound as 0% inhibition rate. The 50% inhibition concentration (μM) was calculated from the obtained dose response curve (Table 11).

[2] = biological target: T2, Reg1_301-599 (amino acids 301-599 of human Regnase-1) phosphorylation by TBK1 (Homo sapiens, UniProt Q5D1E8); test: Regnase-1 phosphorylation inhibition by compounds (AlphaScreen), TBK1, C-terminal Regnase-1; format: biochemical; details: Table 13, read-out: Phosphorylation inhibition Reg1_301-599, 50% inhibition concentration (TBK1)
T2 construct: made in house; host or cells: Expi293 cells
T2 sequence (Q5D1E8 301-599): T1 sequence (Q5D1E8 301-599)
Description: as §1, §2, §3, §4

| Compound | IC50 [1] | IC50 [2] |
| --- | --- | --- |
| CC[C@H](C)[C@@H]1NC(=O)[C@H](CCCNC(=N)N)NC(=O)[C@H](Cc2ccc(O)cc2)NC(=O)[C@H](Cc2c[nH]c3ccccc23)NC(=O)[C@H](CO)NC(=O)[C@H](CC(N)=O)NC(=O)[C@H](C)N(C)C(=O)C[C@@H](C(=O)N2CCCC2)NC(=O)[C@H](CC(C)C)NC(=O)CNC(=O)[C@H](Cc2c[nH]c3ccccc23)NC1=O [PP22] (HELM PEPTIDE1{[meA].N.S.W.Y.R.I.W.G.L.D.[C1CCN([*:1])C1]}$PEPTIDE1,PEPTIDE1,1:R1-11:R3$$$V2.0) | 31 µM |  |
| CC[C@H](C)[C@@H]1NC(=O)[C@H](Cc2c[nH]c3ccccc23)NC(=O)[C@H](CCCNC(=N)N)NC(=O)[C@H](Cc2ccccc2)NC(=O)[C@H](CCC(N)=O)NC(=O)[C@H](C)NC(=O)[C@H](Cc2ccccc2)NC(=O)[C@H](CCCCN)NC(=O)[C@H](C)N(C)C(=O)C[C@@H](C(=O)N2CCCC2)NC(=O)[C@@H]2CCCN2C(=O)[C@H](Cc2ccc(O)cc2)NC1=O [PP11] (HELM PEPTIDE1{[meA].K.F.A.Q.F.R.W.I.Y.P.D.[C1CCN([*:1])C1]}$PEPTIDE1,PEPTIDE1,1:R1-12:R3$$$V2.0) | > 62.1 µM | > 62.1 µM |
| CC(C)[C@@H]1NC(=O)[C@H](CCCCN)NC(=O)[C@H](Cc2ccc(O)cc2)NC(=O)[C@H](Cc2c[nH]c3ccccc23)NC(=O)[C@H](CO)NC(=O)[C@H]([C@@H](C)O)NC(=O)[C@H](C)N(C)C(=O)C[C@@H](C(=O)N2CCCC2)NC(=O)[C@H](CCC(N)=O)NC(=O)CNC(=O)[C@H](Cc2c[nH]c3ccccc23)NC(=O)[C@H](CC(N)=O)NC1=O [PP1] (HELM PEPTIDE1{[meA].T.S.W.Y.K.V.N.W.G.Q.D.[C1CCN([*:1])C1]}$PEPTIDE1,PEPTIDE1,1:R1-12:R3$$$V2.0) | > 62.1 µM | > 62.1 µM |
| CC[C@H](C)[C@@H]1NC(=O)[C@H](CC(N)=O)NC(=O)[C@H](Cc2ccc(O)cc2)NC(=O)[C@H](Cc2c[nH]c3ccccc23)NC(=O)[C@H](CO)NC(=O)[C@H](CC(N)=O)NC(=O)[C@H](CO)NC(=O)[C@H](Cc2ccccc2)NC(=O)[C@H](CC(N)=O)NC(=O)[C@H](C)N(C)C(=O)C[C@@H](C(=O)N2CCCC2)NC(=O)[C@H](Cc2c[nH]c3ccccc23)NC1=O [PP16] (HELM PEPTIDE1{[meA].N.F.S.N.S.W.Y.N.I.W.D.[C1CCN([*:1])C1]}$PEPTIDE1,PEPTIDE1,1:R1-12:R3$$$V2.0) |  | > 62.1 µM |
| CC[C@H](C)[C@@H]1NC(=O)[C@H](CC(=O)O)NC(=O)[C@H](C)N(C)C(=O)C[C@@H](C(=O)N2CCCC2)NC(=O)[C@H](Cc2ccc(O)cc2)NC(=O)[C@H](CC(=O)O)NC(=O)[C@H](Cc2c[nH]c3ccccc23)NC(=O)[C@H](Cc2ccc(O)cc2)NC(=O)[C@H](CC(=O)O)NC(=O)[C@H](Cc2ccccc2)NC(=O)[C@H](Cc2c[nH]c3ccccc23)NC1=O [PP18] (HELM PEPTIDE1{[meA].D.I.W.F.D.Y.W.D.Y.D.[C1CCN([*:1])C1]}$PEPTIDE1,PEPTIDE1,1:R1-11:R3$$$V2.0) | 0.5 µM |  |
| CC[C@H](C)[C@@H]1NC(=O)[C@H](CCCCN)NC(=O)[C@H](Cc2ccc(O)cc2)NC(=O)[C@H](Cc2c[nH]c3ccccc23)NC(=O)[C@H](CO)NC(=O)[C@H](CO)NC(=O)[C@H]([C@@H](C)O)NC(=O)[C@@H]2CCCN2C(=O)[C@@H](C)N(C)C(=O)C[C@@H](C(=O)N2CCCC2)NC(=O)[C@H](Cc2c[nH]c3ccccc23)NC1=O [PP23] (HELM PEPTIDE1{[C[C@H](C(=O)[*:2])N(C)[*:1]].P.T.S.S.W.Y.K.I.W.D.[C1CCN([*:1])C1]}$PEPTIDE1,PEPTIDE1,1:R1-11:R3$$$V2.0) | > 62.1 µM |  |

Results, then the molecule that gave them:

| IC50 [1] | IC50 [2] | Compound |
| --- | --- | --- |
| 20.7 µM | 19.6 µM | CC[C@H](C)[C@@H]1NC(=O)[C@H](Cc2c[nH]c3ccccc23)NC(=O)[C@H](CCC(N)=O)NC(=O)[C@H](Cc2ccc(O)cc2)NC(=O)[C@H](C(C)C)NC(=O)[C@H](C)NC(=O)[C@H](Cc2ccc(O)cc2)NC(=O)[C@H](CCCNC(=N)N)NC(=O)[C@H](C)N(C)C(=O)C[C@@H](C(=O)N2CCCC2)NC(=O)[C@@H]2CCCN2C(=O)[C@H](Cc2ccc(O)cc2)NC1=O [PP12] (HELM PEPTIDE1{[meA].R.Y.A.V.Y.Q.W.I.Y.P.D.[C1CCN([*:1])C1]}$PEPTIDE1,PEPTIDE1,1:R1-12:R3$$$V2.0) |
| 1.8 µM | 0.4 µM | CC[C@H](C)[C@@H]1NC(=O)[C@H](CO)NC(=O)[C@H](CCCNC(=N)N)NC(=O)[C@H](Cc2ccc(O)cc2)NC(=O)[C@H](Cc2ccc(O)cc2)NC(=O)[C@H](Cc2c[nH]c3ccccc23)NC(=O)[C@H](CO)NC(=O)[C@H](CCC(N)=O)NC(=O)[C@H](Cc2ccc(O)cc2)NC(=O)[C@H](CC(N)=O)NC(=O)[C@H](C)N(C)C(=O)C[C@@H](C(=O)N2CCCC2)NC(=O)[C@H](Cc2c[nH]c3ccccc23)NC1=O [PP10] (HELM PEPTIDE1{[meA].N.Y.Q.S.W.Y.Y.R.S.I.W.D.[C1CCN([*:1])C1]}$PEPTIDE1,PEPTIDE1,1:R1-13:R3$$$V2.0) |
|  | < 0.06 µM | CC[C@H](C)[C@@H]1NC(=O)[C@H](CC(=O)O)NC(=O)[C@H](C)N(C)C(=O)C[C@@H](C(=O)N2CCCC2)NC(=O)[C@H](Cc2c[nH]c3ccccc23)NC(=O)[C@H](CC(=O)O)NC(=O)[C@H](Cc2c[nH]c3ccccc23)NC(=O)[C@H](Cc2ccc(O)cc2)NC(=O)[C@H](CC(=O)O)NC(=O)[C@H](Cc2ccccc2)NC(=O)[C@H](Cc2c[nH]c3ccccc23)NC1=O [PP17] (HELM PEPTIDE1{[meA].D.I.W.F.D.Y.W.D.W.D.[C1CCN([*:1])C1]}$PEPTIDE1,PEPTIDE1,1:R1-11:R3$$$V2.0) |
|  | 5.8 µM | CC[C@H](C)[C@@H]1NC(=O)[C@H](CCCCN)NC(=O)[C@H](Cc2ccc(O)cc2)NC(=O)[C@H](Cc2ccccc2)NC(=O)[C@H](C(C)C)NC(=O)[C@H](C)N(C)C(=O)C[C@@H](C(=O)N2CCCC2)NC(=O)[C@H](Cc2c[nH]c3ccccc23)NC(=O)[C@H](CC(N)=O)NC(=O)[C@H](Cc2ccc(O)cc2)NC(=O)[C@H](Cc2c[nH]c3ccccc23)NC1=O [PP19] (HELM PEPTIDE1{[meA].V.F.Y.K.I.W.Y.N.W.D.[C1CCN([*:1])C1]}$PEPTIDE1,PEPTIDE1,1:R1-11:R3$$$V2.0) |
| 6.8 µM | 7.1 µM | CC[C@H](C)[C@@H]1NC(=O)[C@H](CCCNC(=N)N)NC(=O)[C@H](Cc2ccc(O)cc2)NC(=O)[C@H](Cc2c[nH]c3ccccc23)NC(=O)[C@H](C)NC(=O)[C@H](CO)NC(=O)[C@H](C)NC(=O)[C@H](Cc2c[nH]cn2)NC(=O)[C@H](CCCCN)NC(=O)[C@@H](C)N(C)C(=O)C[C@@H](C(=O)N2CCCC2)NC(=O)[C@H](Cc2c[nH]c3ccccc23)NC1=O [PP3] (HELM PEPTIDE1{[C[C@H](C(=O)[*:2])N(C)[*:1]].K.H.A.S.A.W.Y.R.I.W.D.[C1CCN([*:1])C1]}$PEPTIDE1,PEPTIDE1,1:R1-12:R3$$$V2.0) |
|  | 17 µM | CC[C@H](C)[C@@H]1NC(=O)[C@H](CCCCN)NC(=O)[C@H](Cc2ccc(O)cc2)NC(=O)[C@H](Cc2c[nH]c3ccccc23)NC(=O)[C@H](CO)NC(=O)[C@H](CC(N)=O)NC(=O)[C@H](C)N(C)C(=O)C[C@@H](C(=O)N2CCCC2)NC(=O)[C@H](CC(C)C)NC(=O)CNC(=O)[C@H](Cc2c[nH]c3ccccc23)NC1=O [PP21] (HELM PEPTIDE1{[meA].N.S.W.Y.K.I.W.G.L.D.[C1CCN([*:1])C1]}$PEPTIDE1,PEPTIDE1,1:R1-11:R3$$$V2.0) |

Reference: patent publication US20250018014A1, “METHOD FOR TREATING AND/OR PREVENTING REGNASE-1-RELATED DISEASE” (OSAKA UNIVERSITY, priority 2018, published 2025)
